Data as given in patent US10577340B1, “Beraprost-314d crystals and methods for preparation thereof” (CHIROGATE INTERNATIONAL INC., priority 2018, dated 2020).
Entries after “also recorded” stand apart in the source; their conditions may differ.

How the values were obtained:
[1] = Crystalline form transformation from Form III to Form II at room temperature; type: physicochemical; details: FIG. 5
Method: (§1) X-ray Powder Diffraction (XRPD) Analysis: The XRPD patterns were collected on a Bruker D2 PHASER diffractometer with fixed divergence slits and ID LYNXEYE detector. The samples (ca. 100 mg) were flatly placed on a sample holder. The prepared samples were analyzed over a […] from 5° to 50° with step size of 0.02 degrees and step time of 1 second using CuKα radiation at a power of 10 mA and 30 kV. The CuKβ radiation was removed by a divergent beam nickel filter.
The Beraprost-314d crystal Form III (0.5 g, from Example 5) was placed in a glass vial, and isothermal at room temperature for 1 day.

[2] = Storage stability of the crystalline form (crystalline form change, degradation products); type: physicochemical; details: six months
Method: as §1

## Beraprost-314d [Beraprost-314d crystal Form III]
[1]; glass vial, isothermal at room temperature for 1 day
  crystalline form transformation: completely converted to Beraprost-314d crystal Form II
[1]; keeping at room temperature
  time until conversion to Beraprost-314d crystal Form II: ≤ 1 days

## Beraprost-314d [Beraprost-314d crystal Form II]
[2]; normal storage temperatures (about −20° C.)
  stability during storage (other crystalline forms, degraded products): no other crystalline forms or degraded products of impurities; also recorded: good stability with no other crystalline forms
[2]; room temperature (about 20 to 25° C.)
  stability during storage (other crystalline forms): good stability with no other crystalline forms
